Experimental findings from PubChem BioAssay AID434933 (The Scripps Research Institute Molecular Screening Center, 2010) are described below.

The structures appear in SMILES notation. Several values for one entry are separate records, joined by “and”; a condition that tells them apart may be missing. Equal values may be shown once. Activity calls are given as the source filed them.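 The calls were made as follows: active = compound with HepG2 cell viability IC50 of 10 micromolar or lower; inactive = IC50 above 10 micromolar.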

This experiment has as its system HepG2 viability, CellTiter-Glo ATP luminescence. Put plainly: HepG2 viability loss – cell-based, luminescence, dose response, cytotoxicity control for TPT1 inhibitor project, late-stage follow-up (AID 434933).

Broadly, the IC50 is the concentration that inhibits the measured activity by half. For `NS(=O)(=O)c1cc(C(=O)NC2CCSc3ccccc32)ccc1Cl` (stereo not given), the IC50 is > 79.4 µM (inactive). With `Cc1[nH]n(-c2ccc(S(=O)(=O)O)cc2)c(=O)c1N[N-]c1ccc(C2=CC(=O)/C(=N\[N-]c3ccc4c(S(=O)(=O)O)cc(S(=O)(=O)O)c(N)c4c3O)C=C2)cc1O.[Cu+].[Cu+]`, the IC50 was 53.6 µM (inactive). In the case of `NC(=O)c1cc[n+](CC2=C(C(=O)O)N3C(=O)[C@@H](NC(=O)C(c4ccccc4)S(=O)(=O)O)[C@H]3SC2)cc1` (stereo not given in full), the IC50 is > 79.4 µM (inactive). As to `OC(Cn1cncn1)(Cn1cncn1)c1ccc(F)cc1F`, the IC50 is > 79.4 µM (inactive). In the case of `O=c1oc2c(O)c(O)cc3c(=O)oc4c(O)c(O)cc1c4c23`, the IC50 was > 79.4 µM (inactive). For `Cc1ccc(N2C(=O)NC(=O)/C(=C\c3ccc([N+](=O)[O-])o3)C2=O)cc1`, the IC50 is 53.5 µM (inactive). Next, `Cc1cc(C)n(Cc2ccc(C(=O)NN=Cc3ccc(-c4ccc([N+](=O)[O-])cc4)o3)o2)n1`: 72.7 µM (inactive). On to `CC1=C(C#N)C(=O)N(C2CCS(=O)(=O)C2)C(=O)/C1=C\c1ccco1` (stereo not given), for which the IC50 was > 79.4 µM (inactive). Turning to `COc1ccc(OC)c(N2C(=O)/C(=C/c3ccco3)C(=O)NC2=S)c1`, the IC50 was > 79.4 µM (inactive). The value for `Cc1ccccc1N1C(=O)/C(=C/c2ccco2)C(=O)NC1=S` was > 79.4 µM (inactive) and 36.6 µM (inactive).
